Like-named read-outs stand apart in the source and are kept apart here.
Target: human TrkA (Homo sapiens (Human), UniProt P04629)
Test: Human TrkA inhibition assay (Test Example 2)
Format: biochemical
Experimental: Seven point five μL per well of human TrkA (PV3144, Lifetechnologies, final concentration: 1 nmol/L) suspended in the assay buffer (100 mmol/L 4-(2-hydroxyethyl)-1-piperazineethanesulfonic acid (HEPES), 10 mmol/L magnecium chloride, 0.003 vol % Brij-35, 0.004 vol % Tween20 and 1 mmol/L dithiothreitol (DTT)) was applied in a 384 well plate and the plate was pre-incubated for 15 min at room temperature with 0.4 μL of each compound (final concentration: 200 μmol/L-1 pmol/L) dissolved in DMSO. Then, fluorescent substrate (FL-peptide 27, 760424, PerkinElmer, final concentration: 1.5 μmol/L) and ATP (final concentration 500 μmol/L) dissolved in the assay buffer was added in each well. After the incubation of 120 min at 37° C., fifteen μL of termination buffer (100 mmol/L HEPES, 40 mmol/L ethylenediaminetetraacetic acid (EDTA), 10 mmol/L magnecium chloride, 0.003 vol % Brij-35, 0.004 vol % Tween20, 1 mmol/L DTT and 0.16 vol % Coating Reagent 3) was added in each well to stop the enzyme reaction. Fluorescent intensities (FI) of phosphorylated and non-phosphorylated fluorescent substrates were measured by LabChip EZReader II (Caliper LifeSciences, Inc.), and conversion ratio (CR) was calculated by the following formula-1. The CR in the well applied with DMSO alone was used as a negative control and the CR in the well without applying TrkA was used as a positive control. The inhibitory effect of each compound on TrkA phosphorylation was calculated by the following formula-2. CR (%)=(FI of phosphorylated substrate/(FI of phosphorylated substrate+FI of non-phosphorylated substrate))×100 (Formula-1) Phosphorylation inhibition (%)=(1−(CR with compound treatment−CR of positive control)/(CR of negative control−CR of positive control))×100 (Formula-2)
IC50 values (nmol/L) were determined by the logistic regression using the inhibition data in 10 points of 3-fold dilution series at a compound concentration range of 20 nmol/L to 1 pmol/L, or 10 points of 3-fold dilution series at the range of 2 μmol/L to 0.1 nmol/L, or 10 points of 3-fold dilution series at the range of 200 μmol/L to 10 nmol/L, or 15 points of 3-fold dilution series at the range of 200 μmol/L to 0.04 nmol/L.
The evaluation results of the compounds in the present invention are indicated as follows. IC50 values of 0 to 100 nM, 100 to 1000 nM and over 1000 nM were shown as “A”, “B” and “C”, respectively.

[1] = Table 155, human TrkA inhibition, read-out: IC50
[2] = human TrkA 1 nmol/L, ATP 500 μmol/L, 120 min at 37° C., read-out: IC50 values (TrkA phosphorylation inhibition)
[3] = Table 156, human TrkA inhibition, read-out: IC50
[4] = Table 154, human TrkA inhibition, read-out: IC50
[5] = Table 157, human TrkA inhibition, read-out: IC50
[6] = Table 153, human TrkA inhibition, read-out: IC50

Sequence of human TrkA (P04629 440-796): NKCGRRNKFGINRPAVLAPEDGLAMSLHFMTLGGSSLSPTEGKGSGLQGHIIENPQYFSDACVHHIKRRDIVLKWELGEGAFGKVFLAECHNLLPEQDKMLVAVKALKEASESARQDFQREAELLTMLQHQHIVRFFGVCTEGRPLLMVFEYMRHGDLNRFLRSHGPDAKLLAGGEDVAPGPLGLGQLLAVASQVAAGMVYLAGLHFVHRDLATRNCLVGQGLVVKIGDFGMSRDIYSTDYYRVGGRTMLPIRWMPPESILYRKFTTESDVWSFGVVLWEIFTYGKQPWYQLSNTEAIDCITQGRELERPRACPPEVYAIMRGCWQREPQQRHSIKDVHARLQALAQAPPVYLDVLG

COCCN1C[C@@H](NC(=O)Nc2c(C)c(-c3cnn(C)c3)nn2CCO)[C@H](c2ccc(F)c(F)c2)O1 [Compound I-493]
IC50 [1]: > 1000 nM

COCCN1C[C@@H](NC(=O)Nc2c(C)c(-c3cnc4c(c3)oc(=O)n4C)nn2-c2ccccc2)[C@H](c2ccnc(F)c2)O1 (racemic) [Compound I-122]
IC50 [2]: 2.7 nM

COCCN1C[C@@H](NC(=O)Nc2c(C)c(OCC3CN(C(C)=O)CCO3)nn2-c2ccccc2)[C@H](c2ccc(F)c(F)c2)O1 (single isomer, unassigned) [Compound I-577]
IC50 [3]: < 100 nM

COCCN1C[C@@H](NC(=O)Nc2c(C)c(-c3cnc(OC)c(C#N)c3)nn2-c2ccccc2)[C@H](c2ccnc(F)c2)O1 (racemic) [Compound I-307]
IC50 [4]: < 100 nM

COCCN1C[C@@H](NC(=O)Nc2c(C)c(C3=CCN(C(C)=O)CC3)nn2-c2ccccc2)[C@H](c2ccc(F)c(F)c2)O1 (racemic) [Compound I-31]
IC50 [2]: 0.78 nM

CCN1C[C@@H](NC(=O)Nc2c(C)c(OCCCCO)nn2-c2ccccc2)[C@H](c2ccc(F)c(F)c2)O1 (racemic) [Compound I-670]
IC50 [5]: < 100 nM

COCCN1C[C@@H](NC(=O)Nc2c(C)c(-c3cnc4nn(C(F)F)cc4c3)nn2-c2ccccc2)[C@H](c2ccnc(F)c2)O1 (racemic) [Compound I-331]
IC50 [1]: < 100 nM

COCCN1C[C@@H](NC(=O)Nc2c(C)c(N3CC(c4ccc(F)cc4)C3)nn2-c2ccccc2)[C@H](c2cnc(F)c(F)c2)O1 (racemic) [Compound I-336]
IC50 [1]: < 100 nM

CNC(=O)c1cc(-c2nn(-c3ccccc3)c(NC(=O)N[C@@H]3CN(Cc4ccc(C#N)o4)O[C@H]3c3ccc(F)c(F)c3)c2C)cn(C)c1=O (racemic) [Compound I-150]
IC50 [6]: < 100 nM

COCCN1C[C@@H](NC(=O)Nc2c(C)c(-c3ccc(N=S(C)(C)=O)nc3)nn2-c2ccccc2)[C@H](c2ccc(F)cc2)O1 [Compound I-334]
IC50 [1]: < 100 nM

COCCN1C[C@@H](NC(=O)Nc2c(C)c(-c3cnc(C4[C@@H]5CC[C@H]4COC5)nc3)nn2-c2ccccc2)[C@H](c2ccnc(F)c2)O1 (mixture of isomers) [Compound I-438]
IC50 [1]: < 100 nM

COCCN1C[C@@H](NC(=O)Nc2c(C)c(-c3cnc(C(=O)NC4CC4)c(C)c3)nn2-c2ccccc2)[C@H](c2ccnc(F)c2)O1 (racemic) [Compound I-169]
IC50 [6]: < 100 nM

COCCN1C[C@@H](NC(=O)Nc2c(Cl)c(-c3cnc(OC)nc3)nn2-c2ccccc2)[C@H](c2ccnc(F)c2)O1 (racemic) [Compound I-674]
IC50 [2]: 5.8 nM

CNC(=O)c1cc(-c2cc(NC(=O)N[C@@H]3CN(CCOC)O[C@H]3c3ccnc(F)c3)n(C)n2)cnc1OC (racemic) [Compound I-95]
IC50 [6]: > 1000 nM

CNC(=O)c1ncc(-c2nn(-c3ccccc3)c(NC(=O)N[C@@H]3CN(CCOC)O[C@H]3c3cnc(F)c(F)c3)c2C)cc1C [Compound I-253]
IC50 [2]: 1.3 nM

COCCN1C[C@@H](NC(=O)Nc2c(C(F)(F)F)c(C)nn2-c2ccccc2)[C@H](c2ccnc(F)c2)O1 (racemic) [Compound I-660]
IC50 [2]: 70 nM

CCN1CCC(NC(=O)c2ccc(-c3nn(-c4ccccc4)c(NC(=O)N[C@@H]4CN(CCOC)O[C@H]4c4ccc(F)c(F)c4)c3C)cc2)CC1 (racemic) [Compound I-36]
IC50 [2]: 1.4 nM

COCCN1C[C@@H](NC(=O)Nc2c(C)c(-c3cnc4[nH]ncc4c3)nn2-c2ccccc2)[C@H](c2ccnc(F)c2)O1 (racemic) [Compound I-299]
IC50 [2]: 2.1 nM

COCCN1C[C@@H](NC(=O)Nc2c(C)c(-c3ccncc3)nn2-c2ccccc2)[C@H](c2ccc(F)c(F)c2)O1 [Compound I-466]
IC50 [1]: < 100 nM

COCCN1C[C@@H](NC(=O)Nc2c(C)c(-c3cnc4c(c3)nc(C#N)n4C)nn2-c2ccccc2)[C@H](c2ccnc(F)c2)O1 (racemic) [Compound I-220]
IC50 [4]: < 100 nM

COCCN1C[C@@H](NC(=O)Nc2c(C)c(-c3cnc4c(c3)OCCO4)nn2-c2ccccc2)[C@H](c2cnc(F)c(F)c2)O1 (racemic) [Compound I-462]
IC50 [1]: < 100 nM

Cc1c(OCC2CCNCC2)nn(-c2ccccc2)c1NC(=O)N[C@@H]1CN(CCF)O[C@H]1c1ccc(F)c(F)c1 (racemic) [Compound I-560]
IC50 [3]: < 100 nM

COCCN1C[C@@H](NC(=O)Nc2c(C)c(-c3cc(CO)c(=O)n(C)c3)nn2-c2ccccc2)[C@H](c2ccc(F)c(F)c2)O1 (racemic) [Compound I-125]
IC50 [6]: < 100 nM

COCCN1C[C@@H](NC(=O)Nc2c(C)c(-c3cnc(N4CC5(COC5)C4)nc3)nn2-c2ccccc2)[C@H](c2ccnc(F)c2)O1 (racemic) [Compound I-373]
IC50 [1]: < 100 nM

COCCN1C[C@@H](NC(=O)Nc2c(C)c(-c3ccc4nc(C)nn4c3)nn2-c2ccccc2)[C@H](c2ccnc(F)c2)O1 (racemic) [Compound I-159]
IC50 [2]: 2.1 nM

COCCN1C[C@@H](NC(=O)Nc2c(C)c(-c3cnc4c(c3)nc(C(=O)NCCO)n4C)nn2-c2ccccc2)[C@H](c2ccnc(F)c2)O1 (racemic) [Compound I-225]
IC50 [4]: < 100 nM

COCCN1C[C@@H](NC(=O)Nc2c(C)c(-c3cnc(N4C[C@H]5C[C@@H]4CO5)nc3)nn2-c2ccccc2)[C@H](c2ccnc(F)c2)O1 [Compound I-590]
IC50 [5]: < 100 nM

CCOc1ncc(-c2nn(-c3ccccc3)c(NC(=O)N[C@H]3CN(CCOC)O[C@@H]3c3ccnc(F)c3)c2C)cn1 [Compound I-130]
IC50 [6]: > 1000 nM

CNC(=O)c1cc(-c2nn(-c3ccccc3)c(NC(=O)N[C@@H]3CN(CCOC)O[C@H]3c3ccc(F)cc3)c2C)cn(C)c1=O (racemic) [Compound I-138]
IC50 [6]: < 100 nM

COCCN1C[C@@H](NC(=O)Nc2c(C)c(-c3cnc(N4CC(O)C4)nc3)nn2-c2ccccc2)[C@H](c2cnc(F)c(F)c2)O1 [Compound I-210]
IC50 [4]: < 100 nM

COCCN1C[C@@H](NC(=O)Nc2c(C)c(-c3cccc(CN=S(C)(C)=O)c3)nn2-c2ccccc2)[C@H](c2ccc(F)c(F)c2)O1 [Compound I-333]
IC50 [1]: < 100 nM

COCC[C@@H]1C[C@@H](NC(=O)Nc2c(C)c(-c3ccc(N=S(C)(C)=O)nc3)nn2-c2ccccc2)[C@H](c2ccc(F)c(F)c2)O1 (racemic) [Compound I-185]
IC50 [4]: < 100 nM

COCCN1C[C@@H](NC(=O)Nc2c(C)c(-c3cnc(N4CC5(CCOC5)C4)nc3)nn2-c2ccccc2)[C@H](c2ccnc(F)c2)O1 (racemic) [Compound I-483]
IC50 [1]: < 100 nM

COCCN1C[C@@H](NC(=O)Nc2c(C)c(-c3cnc4ncn(CC(F)(F)F)c4c3)nn2-c2ccccc2)[C@H](c2ccnc(F)c2)O1 (racemic) [Compound I-241]
IC50 [2]: 3.2 nM

COCCN1C[C@@H](NC(=O)Nc2c(C)c(-c3cnc(N4CCN(C)CC4)nc3)nn2-c2ccccc2)[C@H](c2ccnc(F)c2)O1 (racemic) [Compound I-379]
IC50 [1]: < 100 nM

CCN1C[C@@H](NC(=O)Nc2c(C)c(OCCCN3CCCC3)nn2-c2ccccc2)[C@H](c2ccc(F)c(F)c2)O1 (racemic) [Compound I-661]
IC50 [5]: < 100 nM

COCCOc1ncc(-c2nn(-c3ccccc3)c(NC(=O)N[C@@H]3CN(CCOC)O[C@H]3c3ccnc(F)c3)c2C)cn1 (racemic) [Compound I-511]
IC50 [1]: < 100 nM

COCCN1C[C@@H](NC(=O)Nc2c(C)c(-c3ccc4nc(CO)cn4c3)nn2-c2ccccc2)[C@H](c2ccc(F)c(F)c2)O1 [Compound I-451]
IC50 [1]: < 100 nM

COCCN1C[C@@H](NC(=O)Nc2c(C)c(OCC3CN(C)CCO3)nn2-c2ccccc2)[C@H](c2ccc(F)c(F)c2)O1 (some centres unmarked) [Compound I-580]
IC50 [3]: < 100 nM

COCCN1C[C@@H](NC(=O)Nc2c(C)c(-c3cnc4c(c3)c(CN3CCCC3)nn4C)nn2-c2ccccc2)[C@H](c2ccnc(F)c2)O1 (racemic) [Compound I-412]
IC50 [1]: < 100 nM

COCCN1C[C@@H](NC(=O)Nc2c(C)c(-c3cnc4c(ccc(=O)n4C)c3)nn2-c2ccccc2)[C@H](c2ccc(F)c(F)c2)O1 [Compound I-229]
IC50 [4]: < 100 nM

COCCN1C[C@@H](NC(=O)Nc2c(C)c(-c3ccnc(C(=O)NOC)c3)nn2-c2ccccc2)[C@H](c2ccnc(F)c2)O1 (racemic) [Compound I-232]
IC50 [2]: 4.2 nM

CCC(O)(CC)c1cc(-c2nn(-c3ccccc3)c(NC(=O)N[C@@H]3CN(CCOC)O[C@H]3c3ccnc(F)c3)c2C)cnc1OC (racemic) [Compound I-354]
IC50 [1]: < 100 nM

CCN1C[C@@H](NC(=O)Nc2c(C)c(OCCC3CCN(C)CC3)nn2-c2ccccc2)[C@H](c2ccc(F)c(F)c2)O1 (racemic) [Compound I-672]
IC50 [5]: < 100 nM

— patent publication US10640495B2, “Heterocycle derivatives having TrkA inhibitory activity” (Shionogi & Co., Ltd., priority 2015, dated 2020)
